The values below are quoted from earlier work in patent EP4140474A1, “NUT[…] THE REDUCTION OF OSTE[…] AND INFLAMMATION” (Theracell Advanced Biotechnology S.A., priority 2021, dated 2023).

The target of series [1] is lipoxygenase.
Series [2] deals with MMP13 (Homo sapiens, UniProt P45452). The settings on record: selective inhibitor of MMP13.

Each structure is given as a SMILES string.

What is called IC50 is the concentration that inhibits the measured activity by half. `Oc1ccc(C=Cc2cc(O)cc(O)c2)cc1` [resveratrol]: in series [1], the IC50 was 2.7 µM.

`O=C(/C=C/c1ccc(O)c(O)c1)O[C@H](Cc1ccc(O)c(O)c1)C(=O)O` [rosmarinic, rosmarinic acid]: the IC50 in series [2] was 2.9 µM.
